Data from patent EP0151577B1 (priority 1983, dated 1984).

How the values were obtained:
[1] = Acute toxicity, DL50 i.p.; assay type: in vivo, souris; conditions: mouse, in vivo, ip, read-out: DL50 (ip)en toxicité aigue
Experimental: (§1) La valeur DL50 i.p. pour tous ces derives a été trouvée voisine de 800 mg/kg et la valeur DL 50 i.v. est supérieure a 5 g/kg.

souris [2] = assay: General pharmacological profile: spontaneous motor activity; assay type: in vivo
Description: (§2) Activite motrice spontanée: MODIGH, K., Central and peripheral effects of 5-hydroxytryptophan on motor activity in mice. Psychopharmacologia (Berlin), 23, 48, 1972. Cadence respiratoire: […], S., and VALZELLI, L. Serotonin and cardiovascular system, Chapter 9, in "Serotonin", Elsevier Publ. Co. Amsterdam 1965.

souris [3] = assay: General pharmacological profile: respiratory rate; assay type: in vivo; conditions: for Cadence respira-toire: souris; for Cadence respiratoire: 100 mg/kg i.p., 15 min after administration, Tableau 3
Description: as §2
COHEN, Y. and BLANCHARD, P. Influence de la chelation du calcium sur les effets tensionnels de la sérotonine chez le chien. J. Physiol., 52, 569,1960.
BRAUNWALD, E. Control of myocardial oxygen consumption: Physiologic and clinical considerations. Am. J. Cardiol., 27 (4), 416,1971.

souris [4] = assay: Anticonvulsant activity, MES; assay type: in vivo; conditions: for Activité anticonvulsivante 1. MES: 100 mg/kg i.p., 15 min after administration, Tableau 3
Description: Activite anticonvulsivante (MES): % de protection Temps de sommeil au pentobarbital: WYATT, R.J., ZARKONE, V. […], K., DEMENT, W.C., SMYDER, F. and SJOERDSMA, A., Effects of 5-Hydroxytryptophan on the sleep of normal human subjects. Electroencephaly and Clinical Neurophysiology 30, 5051971.

souris [5] = assay: Pentobarbital sleeping time; assay type: in vivo
Experimental: (§4) Les mesures ont été faites a 15, 30 et 60 minutes après I'administration par voie intrapéritonéale (i.p.) a des souris.

souris [6] = assay: Vertical pole climbing test; assay type: in vivo; conditions: 100 mg/kg i.p., 15 min after administration
souris [7] = assay: Anticonvulsant activity, pentylenetetrazol; assay type: in vivo; conditions: 100 mg/kg i.p., 15 min after administration
souris [8] = assay: Morphine test (antagonism); assay type: in vivo; conditions: 100 mg/kg i.p., 15 min after administration
souris [9] = assay: Anti-stress activity: swimming endurance; assay type: in vivo; conditions: 100 mg/kg i.p., souris observed up to 540 min; témoins 385 ± 31 min
Experimental: Au tableau 4, la lettre N designe le nombre d'animaux (souris). Un astérisque indique une activite importante. Deux astérisques indiquent une possibilité d'activité positive. Dans I'essai d'endurance a la nage, on a observe les souris jusqu'à 540 minutes, la durée moyenne de nage pour les souris témoins étant de 385 ± 31 minutes.
(N) - représente le nombre d'animaux * - activité importante ** - activite positive possible Pour I'endurance a la nage, les souris ont été observées jusqu'à 540 min, la durée moyenne de nage chez les souris témoins était de 385 + 31 min. *** - La leucocytose a été induite par 0,1 ml de lait (sous-cutanée) avant traitement avec le medicament.

Tension sanguine = assay: Cardiovascular activity: blood pressure; assay type: in vivo
Description: (§3) Le protocole experimental était celui décrit dans "Sugar Derivatives of Indolamines. part V: Cardiovascular Effects and "Anti-stress" Activity of Desoxyfructose Derivative of Serotonin and 5-Metho-xy- tryptamin", L. Mester, M. Mester, K.P. Bhargava, C. Labrid, G. Dureng and M. Cheucle, THROMBOSIS […], 15,245,1979.

Rythme cardiaque = assay: Cardiovascular activity: heart rate; assay type: in vivo
Description: as §3

[10] = system: réponse à l'obstruction de la carotide; assay: Cardiovascular activity: response to carotid occlusion (CO); assay type: in vivo
Description: as §3

souris [11] = assay: Tremor score in mice pretreated with a MAO inhibitor (Harmaline); assay type: in vivo; conditions: 75 mg/kg S.C., 1 h after Harmaline 25 mg/kg P.O., 5 souris, scored 5 to 75 min
Experimental: Les conditions expérimentales étaient les suivantes:
Chez des souris prétraitées par un inhibiteur de la MAO (Harmaline 25 mg/kg/ P.O.), I'injection de 5HTP (1 heure après l'IMAO) entraîne l'apparition de tremblements plus ou moins généralisés, accompagnés ou non d'hyperactivité motrice et qui sont dus a I'accumulation de sérotonine non dégradée au niveau des récepteurs post-synaptiques cérébraux. On peut établir pour chaque souris une cotation chiffrée suivant l'intensité des symptômes observes au cours du temps (cotation toutes les 5 min. entre la 5ème et la 45ème min. après I'injection de 5 HTP puis toutes les 15 min. jusqu'à la 75ème min.).
On additionne en une score total tous les chiffres obtenus aux différents temps sur des lots de 5 ou 10 souris.
Les actions du 5 HTP ont été comparées a celles du DF-5HTP.

souris [12] = assay: Catatonia; conditions: 100 mg/kg i.p., 15 min after administration
souris [13] = assay: Rotarod test; conditions: 100 mg/kg i.p.; témoin 11,3 ± 3,1
Experimental: as §4

souris [14] = assay: Inclined screen test (neurotoxicity); conditions: 100 mg/kg i.p., 15 min after administration, Tableau 3
Experimental: as §4

souris [15] = assay: General pharmacological profile: defecation; conditions: 100 mg/kg i.p., 15 min after administration, Tableau 3
Experimental: as §4

souris [16] = assay: General pharmacological profile: hypersensitivity to noise; conditions: 100 mg/kg i.p., 15 min after administration, Tableau 3
Experimental: as §4

M. Leprae = assay: Incorporation of 3H-DOPA by M. leprae in vitro; assay type: cell-based, Mycobacterium leprae; conditions: 6 h
Description: Le tableau 6 rassemble des résultats d'essai concernant l'activité du DF-5HTP sur l'incorporation de la DOPA dans les Mycobacteries de la lèpre. Le protocole experimental était celui décrit dans JAYARAMAN, P., […], P.R., MESTER, M. and MESTER, L. Inhibition of the incorporation of ^3H-DOPA in Mycobacterium leprae by Desoxyfructo-serotonin. Biochem. Pharm., 29, 2526,1980.
On a inoculé 5 x 10^6 M. leprae par tube; le milieu était un tampon phosphate à pH 6,8. La quantité de 3H-DOPA était de 1 µ. Ci/tube.
Protocole: Chaque tube de 0,5 ml est inocule de 5 x 10^6 M. leprae et de 1 µ Ci de ^3H-DOPA. Après 6 heures, I'incorporation de la DOPA radioactive est enregistrée en DPM selon la technique utilisée dans JAYARAMAN, P., […], P.R., MESTER, M. and MESTER, L. Inhibition of the Incorporation of ^3H-DOPA in Mycobacterium leprae by Desoxyfructo-serotonin. Biochem. Pharm., 29,2526,1980.

[17] = In vivo metabolism of radioactive compounds, hamster plasma; conditions: au bout de 4 heures, figure 2
Description: La mesure de la radioactivite des diverses fractions isolées du sang des hamsters traités permet de caractériser les metabolites, lesquels sont ainsi isolés et identifies par électrophorèse. Les metabolites acides HIAA et IAA sont séparés ensemble.
On a porté le temps en abscisses (exprimé en heures) et en ordonnées le pourcentage du compose caractérisé dans le plasma.

[18] = system: cellules des neuroblastomes; assay: Inhibition of serotonin incorporation into neuroblastoma cells in vitro; assay type: cell-based
souris [19] = assay: Acute toxicity, DL50 i.p.; assay type: in vivo
Experimental: as §1

souris [20] = assay: Motor activity (Photactametre); assay type: in vivo; conditions: 100 mg/kg i.p., compared with 5HTP used as control
[21] = system: 5-HT (dans tout le cerveau); assay: Amount of serotonin (5-HT) in whole brain, spectrophotofluorometric; assay type: in vivo, souris; conditions: 160 mg/kg i.p., 15 min.; Solution Saline 60,0; mean of 4 souris
Description: Les quantités de sérotonine ont été estimees par une méthode spectrophotofluorométrique, telle que décrite par Solomon et al. Biochem. Pharmacology 14, 831 (1965). Les résultats de ces essais sont rassemblés dans le Tableau 10 ci-après.
• * Chaque valeur représente la moyenne de quatre animaux d'experience (souris) • ** La concentration de 5-HT est exprimée par gramme de tissu frais (cerveau).

[22] = 100 mg/kg i.p., 15 min after administration, Tableau 3
[23] = 100 mg/kg (ip), 15 min, Tableau 2
[24] = 10 mg par voie cérébroventriculaire

N[C@@H](Cc1c[nH]c2ccc(O)cc12)C(=O)O [5-HTP, 5-hydroxytryptophane, reference compound]
LD50 [1]: > 800 mg/kg | Activité motrice spontanée (souris [2]; 50 mg/kg (ip), souris): sans effet | Activité motrice spontanée (souris [2]; 100 mg/kg (ip), souris, Tableau 2): d'abord légère augmentation et ensuite dimi-nution légère | Activité motrice spontanée (souris [2]; [22]): Légère augmentation | Cadence respira-toire (souris [3]; 50 mg/kg (ip)): sans effet | Cadence respira-toire (souris [3]; 100 mg/kg (ip), Tableau 2): augmentation | Cadence respiratoire (souris [3]): Légère augmentation | Activité anticon-vulsivante MES % protection (souris [4]; 50 mg/kg (ip), 15 min): 20% | Activité anticon-vulsivante MES % protection (souris [4]; 50 mg/kg (ip), 30 min): 25% | Activité anticon-vulsivante MES % protection (souris [4]; 50 mg/kg (ip), 60 min): 25% | Activité anticon-vulsivante MES % protection (souris [4]; [23]): 50% | Activité anticon-vulsivante MES % protection (souris [4]; 100 mg/kg (ip), 30 min): 33,3% | Activité anticonvulsivante 1. MES (souris [4]): 60% | Temps de sommeil au pentobarbital % du témoin (témoin =100) (souris [5]; 50 mg/kg (ip), 15 min): 285 % du témoin | Temps de sommeil au pentobarbital % du témoin (témoin =100) (souris [5]; 50 mg/kg (ip), 30 min): 222 % du témoin | Temps de sommeil au pentobarbital % du témoin (témoin =100) (souris [5]; 50 mg/kg (ip), 60 min): 136 % du témoin | Temps de sommeil au pentobarbital % du témoin (témoin =100) (souris [5]; [23]): 295 % du témoin | Temps de sommeil au pentobarbital % du témoin (témoin =100) (souris [5]; 100 mg/kg (ip), 30 min): 276 % du témoin | Temps de sommeil au pentobarbital % du témoin (témoin =100) (souris [5]; 100 mg/kg (ip), 60 min): 279 % du témoin | Essai de grimpé sur un baton vertical (souris [6]): Sans effet | Activité anticonvulsivante 2.Pentylènetetrazol (souris [7]): 0% | Essai à la morphine (souris [8]): Négatif (pas d'antagonisme) | Endurance à la nage % d'augmentation (souris [9]): 40^** % | Tension sanguine Durée (Tension sanguine; [24]): 240 min | Tension sanguine Mesure à (Tension sanguine; [24]): 1 min | Tension sanguine Pic (Tension sanguine; [24]): 15 min | Tension sanguine Durée (Tension sanguine; 100 mg par voie intraveineuse): 60 min | Tension sanguine Mesure à (Tension sanguine; 100 mg par voie intraveineuse): 1 min | Tension sanguine Pic (Tension sanguine; 100 mg par voie intraveineuse): 10 min | Rythme cardiaque Durée (min) (Rythme cardiaque; [24]): non mani-fes-tae jus-qu'à 240 | Rythme cardiaque Mesure à (Rythme cardiaque; [24]): 5 min | Rythme cardiaque Pic (Rythme cardiaque; [24]): 30 min | Rythme cardiaque Durée (Rythme cardiaque; 100 mg par voie intraveineuse): 60 min | Rythme cardiaque Mesure à (Rythme cardiaque; 100 mg par voie intraveineuse): 1 min | Rythme cardiaque Pic (Rythme cardiaque; 100 mg par voie intraveineuse): 30 min | REPONSE CO Durée [10, 24]: 105 min | REPONSE CO Mesure à [10, 24]: 1 min | REPONSE CO Pic [10, 24]: 10 min | REPONSE CO Durée ([10]; 100 mg par voie intraveineuse): 45 min | REPONSE CO Mesure à ([10]; 100 mg par voie intraveineuse): 5 min | REPONSE CO Pic ([10]; 100 mg par voie intraveineuse): 15 min | Score total (tremblements) (souris [11]): 146 | Catatonie (souris [12]): non | Performance à l'essai Rotarod Moyenne (Sec) (souris [13]): 66,2 ± 6,4 (30) Sec | Tamis incliné (souris [14]): Pas d'effet neurotoxique | Défécation (souris [15]): oui | Hypersensibilité au bruit (souris [16]): oui

désoxyfructo-sérotonine [DF-5HT, reference compound]
incorporation de 3H-DOPA par M. Leprae (M. Leprae; 1 µg/ml, Armadillo M.Leprae N°2275/5, témoins 5977): 2431 DPM | incorporation de 3H-DOPA par M. Leprae (M. Leprae; 1 µg/ml, Armadillo M.Leprae N°2275/5 Tués par la chaleur, témoins 915): 410 DPM | incorporation de 3H-DOPA par M. Leprae (M. Leprae; 1 µg/ml, Armadillo M.Leprae N°2457/103, témoins 4215): 2575 DPM | incorporation de 3H-DOPA par M. Leprae (M. Leprae; 1 µg/ml, Armadillo M.Leprae N°2457/103 Tués par la chaleur, témoins 2855): 2110 DPM | incorporation de 3H-DOPA par M. Leprae (M. Leprae; 5 µg/ml, Armadillo M.Leprae N°2275/5, témoins 5977): 2264 DPM | incorporation de 3H-DOPA par M. Leprae (M. Leprae; 5 µg/ml, Armadillo M.Leprae N°2275/5 Tués par la chaleur, témoins 915): 566 DPM | incorporation de 3H-DOPA par M. Leprae (M. Leprae; 5 µg/ml, Armadillo M.Leprae N°2457/103, témoins 4215): 1485 DPM | incorporation de 3H-DOPA par M. Leprae (M. Leprae; 5 µg/ml, Armadillo M.Leprae N°2457/103 Tués par la chaleur, témoins 2855): 1640 DPM | niveau du compose non transformé dans le plasma [17]: insignifiante | % Inhibition à 0°C de l'incorporation de la sérotonine dans les cellules nerveuses ([18]; 0°C): 95% | % Inhibition à 25°C de l'incorporation de la sérotonine dans les cellules nerveuses ([18]; 10-^4 Mol, 25°C): 90%

désoxyribulo-5-hydroxytryptophane [Désoxy ribulo-5HTP]
DL50 (ip)en toxicité aigue (souris [19]): > 800 mg/kg | Activité motrice spontanée (souris [2]; [22]): sans effet | Cadence respiratoire (souris [3]): sans effet | Activité anticonvulsivante 1. MES (souris [4]): 20% | Temps de sommeil au pentobarbital % du témoin (Témoin à 100) (souris [5]; [22]): 309,2 % du témoin | Essai de grimpé sur un baton vertical (souris [6]): Sans effet | Activité motrice (Photactametre) (souris [20]): Augmentation pendant les 40 premières min. et ensuite diminution | Activité anticonvulsivante 2.Pentylènetetrazol (souris [7]): 0% | Essai à la morphine (souris [8]): Négatif (pas d'antagonisme) | Quantités de 5-HT (dans tout le cerveau) [21]: 92,5
